Data on 28 compounds can be found in patent US8859574B2 (IRM LLC, priority 2008, dated 2014).

Each structure is given as a SMILES string. pIC50: −log10 of the molar value.

In the experiment the target is T1, IGF-1R Ba/F3 (Homo sapiens, UniProt P08069).
T1 construct: fused on or other part: TEL- (or BCR-) IGF-1R in Ba/F3: the kinase part holds the site
T1 sequence (P08069 999-1274 limits assumed): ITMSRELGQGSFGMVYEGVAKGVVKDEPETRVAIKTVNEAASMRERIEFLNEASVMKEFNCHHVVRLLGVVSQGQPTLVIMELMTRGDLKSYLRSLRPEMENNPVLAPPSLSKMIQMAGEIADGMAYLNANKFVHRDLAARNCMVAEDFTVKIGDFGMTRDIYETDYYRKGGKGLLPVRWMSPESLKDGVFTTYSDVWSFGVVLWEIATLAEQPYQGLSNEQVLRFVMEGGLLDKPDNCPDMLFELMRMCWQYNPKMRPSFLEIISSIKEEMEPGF
As to the kind of experiment: Ba/F3 Cell Viability Inhibition Assay (IGF-1R Ba/F3). The class given is cell-based, murine. To be noted: Tel-TK transformed Ba/F3 cells, 48 hours, Britelite luminescence. An outline of the steps:
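IL-3-independent murine Ba/F3 cells transformed with a TEL/BCR-fused IGF-1R kinase were seeded at 3750 cells/well and exposed to serially diluted compound for 48 h at 37 °C. Viability was read by Britelite luminescence. IC50 is the concentration giving 50% of DMSO-control viability, from a logistic fit.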
By pIC50 is commonly meant −log10 of the IC50, conventionally taken in molar units. Lower therefore signals a high IC50. Compound `Cc1cc(Nc2nc(Nc3cc(C)c(C4CCN(Cc5nc(C(C)C)no5)CC4)cc3F)ncc2Cl)n[nH]1` [Compound 259, 5-Chloro-N^2-(2-fluoro-4-(1-((3-isopropyl-1,2,4-oxadiazol-5-yl)methyl)piperidin-4-yl)-5-methylphenyl)-N-(5-methyl-1H-pyrazol-3-yl)pyrimidine-2,4-diamine] gave a negative logarithm of the IC50 (pIC50) of 7.19.

`Cc1cc(Nc2nc(Nc3cc(C)c(C4CNC4)cc3C)ncc2Cl)n[nH]1` [Compound 237, N2-(4-(azetidin-3-yl)-2,5-dimethylphenyl)-5-chloro-N4-(5-methyl-1H-pyrazol-3-yl)pyrimidine-2,4-diamine]: the negative logarithm of the IC50 (pIC50) was 6.39.

Take `Cc1cc(Nc2nc(Nc3cc(C)c([C@@H]4COC(=O)N4)cc3C)ncc2Cl)n[nH]1` [Compound 231, (R)-4-(4-(5-chloro-4-(5-methyl-1H-pyrazol-3-ylamino)pyrimidin-2-ylamino)-2,5-dimethylphenyl)oxazolidin-2-one]: the pIC50 is 7.30.

Regarding `CNC1(C(=O)N2CCC(c3cc(C)c(Nc4ncc(Cl)c(Nc5cc(C)[nH]n5)n4)cc3C)CC2)CC1` [Compound 90, (4-(4-(5-chloro-4-(5-methyl-1H-pyrazol-3-ylamino)pyrimidin-2-ylamino)-2,5-dimethylphenyl)piperidin-1-yl)(1-(methylamino)cyclopropyl)methanone], the pIC50 was 8.30.

`CCc1noc(CN2CCC(c3cc(C)c(Nc4ncc(Cl)c(Nc5cc(C)[nH]n5)n4)cc3C)CC2)n1` [Compound 303, 5-chloro-N2-(4-(1-((3-ethyl-1,2,4-oxadiazol-5-yl)methyl)piperidin-4-yl)-2,5-dimethylphenyl)-N4-(5-methyl-1H-pyrazol-3-yl)pyrimidine-2,4-diamine]: the pIC50 was 8.22.

Consider `Cc1cc(Nc2nc(Nc3cc(C)c(C4CCN([C@H]5CCN(S(C)(=O)=O)C5)CC4)cc3F)ncc2Cl)n[nH]1` [Compound 313, (S)-5-chloro-N2-(2-fluoro-5-methyl-4-(1-(1-(methylsulfonyl)pyrrolidin-3-yl)piperidin-4-yl)phenyl)-N4-(5-methyl-1H-pyrazol-3-yl)pyrimidine-2,4-diamine], for which the pIC50 is 7.52.

Regarding `Cc1cc(Nc2nc(Nc3cc(C)c(C4CCN(Cc5cncnc5)CC4)cc3F)ncc2Cl)n[nH]1` [Compound 314, 5-Chloro-N^2-(2-fluoro-5-methyl-4-(1-(pyrimidin-5-ylmethyl)piperidin-4-yl)phenyl)-N^4-(5-methyl-1H-pyrazol-3-yl)pyrimidine-2,4-diamine], the pIC50 was 7.43.

For `COc1cc(Nc2ncc(Cl)c(Nc3cc(C)[nH]n3)n2)c(C)cc1C1CCN(C[C@H](O)C(F)(F)F)CC1` [Compound 213, (S)-3-(4-(4-(5-chloro-4-(5-methyl-1H-pyrazol-3-ylamino)pyrimidin-2-ylamino)-2-methoxy-5-methylphenyl)piperidin-1-yl)-1,1,1-trifluoropropan-2-ol], the pIC50 was 7.92. Compared with the last compound, the pIC50 is 0.49 log units higher.

`Cc1cc(Nc2ncc(Cl)c(Nc3cc(C(F)(F)F)[nH]n3)n2)c(F)cc1C1CCN(CC(N)=O)CC1` [Compound 173, 2-(4-(4-(5-chloro-4-(5-(trifluoromethyl)-1H-pyrazol-3-ylamino)pyrimidin-2-ylamino)-5-fluoro-2-methylphenyl)piperidin-1-yl)acetamide] had a pIC50 of 7.31. This pIC50 is 0.61 log units lower than that of the compound before.

For the compound `Cc1cc(Nc2nc(Nc3cc(C)c(C4CCN(CC(O)C(F)(F)F)CC4)cc3F)ncc2Cl)n[nH]1` (stereo not shown) [Compound 30, 3-(4-(4-(5-chloro-4-(5-methyl-1H-pyrazol-3-ylamino)pyrimidin-2-ylamino)-5-fluoro-2-methylphenyl)piperidin-1-yl)-1,1,1-trifluoropropan-2-ol], the pIC50 was 7.15.

Turning to `Cc1cc(Nc2nc(Nc3cc(C)c(C4CCN(CC(N)=O)C(C)C4)cc3F)ncc2Cl)n[nH]1` (stereo not shown) [Compound 274, 2-(4-(4-(5-chloro-4-(5-methyl-1H-pyrazol-3-ylamino)pyrimidin-2-ylamino)-5-fluoro-2-methylphenyl)-2-methylpiperidin-1-yl)acetamide], the pIC50 is 8.22.

As to `Cc1cc(Nc2nc(Nc3cc(C)c(C4CCN(C(C)C(=O)O)CC4)cc3F)ncc2Cl)n[nH]1` (stereo not shown) [Compound 54, 2-(4-(4-(5-chloro-4-(5-methyl-1H-pyrazol-3-ylamino)pyrimidin-2-ylamino)-5-fluoro-2-methylphenyl)piperidin-1-yl)propanoic acid], the pIC50 was 5.82.

`Cc1cc(Nc2nc(Nc3cc(C)c(C4CCN(C5CCS(=O)(=O)CC5)CC4)cc3C)ncc2Cl)n[nH]1` [Compound 146] gave a pIC50 of 6.59. Against the preceding compound, the pIC50 is 0.77 log units higher.

`Cc1cc(Nc2nc(Nc3cc(C)c(C4CCN(C5CCC6(CC5)OCCO6)CC4)cc3F)ncc2Cl)n[nH]1` [Compound 283, N2-(4-(1-(1,4-dioxaspiro[4.5]decan-8-yl)piperidin-4-yl)-2-fluoro-5-methylphenyl)-5-chloro-N4-(5-methyl-1H-pyrazol-3-yl)pyrimidine-2,4-diamine] showed a pIC50 of 7.80.

Take `Cc1cc(Nc2nc(Nc3cc(C)c(C4CCN(CCO)CC4)cc3C)ncc2C(F)(F)F)n[nH]1` [Compound 222, 2-(4-(2,5-dimethyl-4-(4-(5-methyl-1H-pyrazol-3-ylamino)-5-(trifluoromethyl)pyrimidin-2-ylamino)phenyl)piperidin-1-yl)ethanol]: the pIC50 is 7.42.

As for `Cc1cc(Nc2nc(Nc3cc(C)c(C4CCN(C(=O)N(C)C)CC4)cc3C)ncc2Cl)n[nH]1` [Compound 70, 4-(4-(5-chloro-4-(5-methyl-1H-pyrazol-3-ylamino)pyrimidin-2-ylamino)-2,5-dimethylphenyl)-N,N-dimethylpiperidine-1-carboxamide], the pIC50 was 8.22. Against the preceding compound, the pIC50 is 0.80 log units higher.

For `Cc1cc(Nc2nc(Nc3cc(C)c(C4CCN(CCC(N)=O)CC4)cc3C)ncc2Cl)n[nH]1` [Compound 236, 3-(4-(4-(5-Chloro-4-(5-methyl-1H-pyrazol-3-ylamino)pyrimidin-2-ylamino)-2,5-dimethylphenyl)piperidin-1-yl)propanamide], the pIC50 is 7.23.

As to `Cc1cc(Nc2nc(Nc3cc(C)c(C4CCN(CCS(C)(=O)=O)CC4)cc3F)ncc2Cl)n[nH]1` [Compound 55, 5-Chloro-N2-(2-fluoro-5-methyl-4-(1-(2-(methylsulfonyl)ethyl)piperidin-4-yl)phenyl)-N4-(5-methyl-1H-pyrazol-3-yl)pyrimidine-2,4-diamine], the pIC50 was 7.62.

Consider `Cc1cc(Nc2nc(Nc3cc(C)c(C4CCN(C(=O)OCCN(C)C)CC4)cc3F)ncc2Cl)n[nH]1` [Compound 108, (dimethylamino)ethyl 4-(4-(5-chloro-4-(5-methyl-1H-pyrazol-3-ylamino)pyrimidin-2-ylamino)-5-fluoro-2-methylphenyl)piperidine-1-carboxylate], for which the pIC50 was 7.28. This pIC50 lies 0.34 log units lower than the previous one.

Compound `Cc1cc(Nc2nc(Nc3cc(Cl)c(C4CCN(C5CCS(=O)(=O)C5)CC4)cc3C)ncc2Cl)n[nH]1` (stereo not shown) [Compound 144, 5-chloro-N^2-(2-methyl-5-chloro-4-(1-(tetrahydro-1,1-dioxido-3-thienyl)piperidin-4-yl)phenyl)-N^4-(5-methyl-1H-pyrazol-3-yl)pyrimidine-2,4-diamine] showed a pIC50 of 8.15.

In turn, `CCNC1(C(=O)N2CCC(c3cc(F)c(Nc4ncc(Cl)c(Nc5cc(C)[nH]n5)n4)cc3C)CC2)CCC1` [Compound 176, (4-(4-(5-chloro-4-(5-methyl-1H-pyrazol-3-ylamino)pyrimidin-2-ylamino)-5-fluoro-2-methylphenyl)piperidin-1-yl)(1-(ethylamino)cyclobutyl)methanone] gave a pIC50 of 7.08.

The compound `CNC(=O)CN1CCC(c2cc(C)c(Nc3ncc(Cl)c(Nc4cc(C(F)(F)F)[nH]n4)n3)cc2C)CC1` [Compound 220, 2-(4-(4-(5-chloro-4-(5-(trifluoromethyl)-1H-pyrazol-3-ylamino)pyrimidin-2-ylamino)-2,5-dimethylphenyl)piperidin-1-yl)-N-methylacetamide] gave a pIC50 of 7.43. Compared with the last compound, the pIC50 is 0.35 log units higher.

As to `CNC(=O)CN1CCC[C@H](c2cc(C)c(Nc3ncc(Cl)c(Nc4cc(C)[nH]n4)n3)cc2C)C1` (single isomer, unassigned) [Compound 207], the pIC50 is 7.59.

`Cc1cc(Nc2nc(Nc3cc(C(F)(F)F)c(C4CCNCC4)cc3F)ncc2Cl)n[nH]1` [Compound 253, 5-chloro-N2-(2-fluoro-4-(piperidin-4-yl)-5-(trifluoromethyl)phenyl)-N4-(5-methyl-1H-pyrazol-3-yl)pyrimidine-2,4-diamine]: the negative-log IC50 (pIC50) was 7.12. This pIC50 lies 0.47 log units lower than the previous one.

`Cc1cc(C2CCN(C(=O)CN(C)C)CC2)c(C)cc1Nc1ncc(Cl)c(Nc2cc(C3CC3)[nH]n2)n1` [Compound 186, 1-(4-(4-(5-chloro-4-(5-cyclopropyl-1H-pyrazol-3-ylamino)pyrimidin-2-ylamino)-2,5-dimethylphenyl)piperidin-1-yl)-2-(dimethylamino)ethanone] had a pIC50 of 7.92. This pIC50 is 0.80 log units higher than that of the compound before.

Take `Cc1cc(Nc2nc(Nc3cc(C4CCN(C(C)C(N)=O)CC4)c(F)cc3C)ncc2Cl)n[nH]1` (stereo not shown) [Compound 48, 2-(4-(5-(5-chloro-4-(5-methyl-1H-pyrazol-3-ylamino)pyrimidin-2-ylamino)-2-fluoro-4-methylphenyl)piperidin-1-yl)propanamide]: the pIC50 is 5.43.

`Cc1cc(Nc2nc(Nc3cc(C)c(C4CC[N+]([O-])(C5CS(=O)(=O)C5)CC4)cc3F)ncc2Cl)n[nH]1` (stereo not shown) [Compound 295, 5-Chloro-N2-{4-[1-(1,1-dioxo-1λ6-thietan-3-yl)-1-oxide-piperidin-4-yl]-2-fluoro-5-methyl-phenyl}-N4-(5-ethyl-1H-pyrazol-3-yl)-pyrimidine-2,4-diamine] showed a pIC50 of 7.41.

In turn, `CNC(=O)C(C)N1CCC(c2cc(C)c(Nc3ncc(Cl)c(Nc4cc(C)[nH]n4)n3)cc2C)CC1` (stereo not shown) [Compound 52, 2-(4-(4-(5-chloro-4-(5-methyl-1H-pyrazol-3-ylamino)pyrimidin-2-ylamino)-2,5-dimethylphenyl)piperidin-1-yl)-N-methylpropanamide] showed a pIC50 of 8.22. Compared with the last compound, the pIC50 is 0.81 log units higher.
